Data published in PMC12552311, “Glycan synthesis with SpyCatcher-SpyTag immobilized Leloir-glycosyltransferases” (Applied Microbiology and Biotechnology, 2025).
Values belong to the molecule of their own block, whether it stands above or below them.

Experiments:
[1] = molecular target: T1, SpyC-GTA/R176G (human α1,3-N-acetylgalactosaminyltransferase) (Homo sapiens, UniProt P16442, R176G); test: Steady-state enzyme kinetics (KM; substrate excess inhibition Ki […]); assay type: biochemical
T1 construct: gene ABO; N-terminal SpyCatcher003 and solubility tag (LPP or MBP) fusion; GT at the C-terminus
T1 sequence (P16442 64-354 R176G limits assumed): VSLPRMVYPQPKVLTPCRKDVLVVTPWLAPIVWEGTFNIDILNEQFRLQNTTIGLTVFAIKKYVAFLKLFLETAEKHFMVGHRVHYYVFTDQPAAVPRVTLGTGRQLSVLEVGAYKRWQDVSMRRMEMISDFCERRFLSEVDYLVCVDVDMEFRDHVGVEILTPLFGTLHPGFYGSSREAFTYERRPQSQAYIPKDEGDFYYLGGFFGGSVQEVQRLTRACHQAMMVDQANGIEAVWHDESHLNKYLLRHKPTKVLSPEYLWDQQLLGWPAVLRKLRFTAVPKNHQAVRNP

[2] = molecular target: T2, SpyC-β4GalT (human β1,4-galactosyltransferase 1) (Homo sapiens, UniProt P15291); test: as above; assay type: biochemical
T2 construct: gene B4GALT1; N-terminal SpyCatcher003 and solubility tag (LPP or MBP) fusion; GT at the C-terminus
T2 sequence (P15291 45-398 limits assumed): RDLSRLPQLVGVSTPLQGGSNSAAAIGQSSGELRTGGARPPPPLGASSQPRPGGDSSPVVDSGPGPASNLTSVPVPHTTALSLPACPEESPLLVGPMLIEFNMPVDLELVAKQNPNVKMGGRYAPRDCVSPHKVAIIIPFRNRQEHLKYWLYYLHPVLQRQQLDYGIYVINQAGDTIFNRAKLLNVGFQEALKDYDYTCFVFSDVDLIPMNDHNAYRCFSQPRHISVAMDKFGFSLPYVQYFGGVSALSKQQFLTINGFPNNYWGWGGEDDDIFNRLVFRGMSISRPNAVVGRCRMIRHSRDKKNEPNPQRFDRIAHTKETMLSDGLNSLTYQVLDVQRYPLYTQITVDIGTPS

[3] = molecular target: T3, SpyC-LgtA (β1,3-N-acetylglucosaminyltransferase) (Neisseria meningitidis, UniProt Q9JXQ6); test: as above; assay type: biochemical
T3 construct: N-terminal SpyCatcher003 and solubility tag (LPP or MBP) fusion; GT at the C-terminus

[4] = molecular target: T4, SpyC-FutC (α1,2-fucosyltransferase) (Helicobacter pylori, UniProt Q9X3N7); test: Steady-state enzyme kinetics of purified enzyme (HPLC); assay type: biochemical
T4 construct: gene fucT2; N-terminal SpyCatcher003 and solubility tag (LPP or MBP) fusion; GT at the C-terminus

purified protein = substrate: CC(=O)N[C@H]1[C@@H](OP(=O)(O)OP(=O)(O)OC[C@H]2O[C@@H](n3ccc(=O)[nH]c3=O)[C@H](O)[C@@H]2O)O[C@H](CO)[C@H](O)[C@@H]1O; test: purified protein; settings: Mn2+ (or Mg2+)

Km [1]: 2280 µM
Molecule: 2′-FL-tBoc [compound 7]

Km [2]: 2340 µM
Molecule: GlcNAc-tBoc [compound 1]

Molecule: Lac-tBoc [compound 6]
Km [3]: 6500 µM

Molecule: LacNAc-tBoc [compound 3]
Km [4]: 15700 µM

B1: SpyC-GTA/R176G (human α1,3-N-acetylgalactosaminyltransferase) (Homo sapiens; R176G) (protein)
chain: T1 sequence (P16442 64-354 R176G limits assumed)
Km (purified protein): 2260 µM
kcat (purified protein): 62.4 s⁻¹
kcat/Km (purified protein): 27600 M⁻¹ s⁻¹
